Our source for the Activity values is ChEMBL document CHEMBL1157257, “Bioactive ent-clerodane diterpenoids from the aerial parts of Baccharis gaudichaudiana” (2006).

For test [1], the system named is PC-12. Description: Enhancement of 2 ng/mL NGF-induced neurite outgrowth in rat PC12D cells at 100 umol after 48 hrs by phase-contrast microscopy relative to 50 ng/mL NGF alone. The format is functional.
Test [2] has as its system PC-12. Description: Effect on neurite outgrowth from rat PC12D cells at 10 to 100 umol after 48 hrs by phase-contrast microscopy. Type of test: functional, cell-based.
Test [3] concerns PC-12. Description: Enhancement of NGF-induced neurite outgrowth in rat PC12D cells at 10 to 100 umol after 48 hrs by phase-contrast microscopy. The format is functional, cell-based.

Structures are written as SMILES. Calls of active or inactive are those of the source. No cut-off for these calls is given here.

As to `CO[C@H]1C[C@H](CC[C@@]2(C)[C@H](C)CC[C@@]3(C)C(C(=O)O)=CCC[C@H]23)CO1`, the Activity in the test with PC-12 [1] worked out at 49%. The result in the test with PC-12 [2] was inactive.
Turning to `CO[C@@H]1C[C@H](CC[C@@]2(C)[C@H](C)CC[C@@]3(C)C(C(=O)O)=CCC[C@H]23)CO1`, the Activity in the test on PC-12 [1] is given as 53%. In addition, in the test on PC-12 [2], the result was inactive.
For `COC(=O)CC(CO)CC[C@@]1(C)[C@H](C)C(=O)C[C@@]23COC(=O)C2=CCC[C@@H]31` (stereo not given in full), the result in the test on PC-12 [3] was inactive.
